One compound from article PMC4767605 (Cancer chemotherapy and pharmacology, 2016) can be followed below.

The subject of this test is advanced solid tumors. To be noted: ASP9853 + docetaxel.

As to `O.O.O=C(/C=C/c1ccc(Cl)cc1)N[C@@H](Cc1ccccn1)C(=O)NCC(=O)N1CCC(Oc2cc(C(F)(F)F)ncn2)CC1` [ASP9853, (2E)-3-(4-chlorophenyl)-N-[(1S)-2-oxo-2-{[2-oxo-2-(4-{[6-(trifluoromethyl)-4-pyrimidinyl]oxy}-1-piperidinyl)ethyl]amino}-1-(2-pyridinylmethyl)ethyl]acrylamide dehydrate], the “Duration of stable disease, mean (SD)” value is 49.4 (47.2) days and the “Duration of stable disease, median [range]” value was 78 [1–133] days. Moreover, the “Patients with best overall response of stable disease” value (Eight patients) is given as 38.1%. The Objective radiographic responses entry (eighteen patients evaluable) is “no objective radiographic responses were observed”.
